Laboratory results: patent US7846966B2, “Chroman derivatives as estrogenic compounds” (N.V. Organon, priority 2000, dated 2010)

System: human estrogen receptor α (hERα) or β receptor (hERβ)
Experiment: in vitro transactivation bioassay (estrogenic activity) in recombinant CHO cells co-transfected with hER, rat oxytocin promoter and luciferase reporter
Format: cell-based
Settings: for Potency Transactivation (% relative to 17β-estradiol): agonist potency ratio vs estradiol, CHO cells, luciferase reporter, receptor subtype not given; for β/α ratio: ratio of hERβ to hERα
Procedure: The estrogenic and antiestrogenic activity of compounds is determined in an in vitro bioassay with recombinant Chinese hamster ovary (CHO) cells stably co-transfected with the human estrogen receptor α (hERα) or β receptor (hERβ), the rat oxytocin promoter (RO) and the luciferase reporter gene (LUC). The estrogenic activity (potency ratio) of a test compound to stimulate the transactivation of the enzyme luciferase mediated via the estrogen receptors hERα or hERβ is compared with the standard estrogen estradiol. The antiestrogenic activity (potency ratio) of a test compound to inhibit the transactivation of the enzyme luciferase mediated via the estrogen receptors hERα or hERβ by the estrogen estradiol is compared with the standard ICI 164.384 (=(7α, 17β)-N-butyl-3,17-dihydroxy-N-methylestra-1,3,5(10)-triene-7-undecanamide).

CCC1C(Cc2ccccc2)c2cc(O)ccc2OC1c1ccc(O)cc1 (stereo not drawn) [Compound 5b]
Potency Transactivation (% relative to 17β-estradiol): +++ (+++ >10%) | β/α ratio: +++ (+++ >30)

CCC1C(Cc2ccccc2)c2cc(OC(=O)C(C)(C)C)ccc2OC1c1ccc(OC(=O)C(C)(C)C)cc1 (racemic) [Compound 6b]
Potency Transactivation (% relative to 17β-estradiol): + (+ between 0.1-4%) | β/α ratio: + (+ between 3.5-10)

CCCC(=O)Oc1ccc(C2Oc3ccc(OC(=O)CCC)cc3C(Cc3ccccc3)C2CC)cc1 (racemic) [Compound 6a]
Potency Transactivation (% relative to 17β-estradiol): +++ (+++ >10%) | β/α ratio: +++ (+++ >30)
